Test results as given in article PMC11530827, “Characterization of a cytochrome P450 that catalyzes the O-demethylation of lignin-derived benzoates” (The Journal of Biological Chemistry, 2024).
pKd: −log10 of the molar value.

How the values were obtained:
PbdA = target: T1, PbdA (Rhodococcus jostii, UniProt Q0SCI3)
T1 sequence (Q0SCI3 1-400): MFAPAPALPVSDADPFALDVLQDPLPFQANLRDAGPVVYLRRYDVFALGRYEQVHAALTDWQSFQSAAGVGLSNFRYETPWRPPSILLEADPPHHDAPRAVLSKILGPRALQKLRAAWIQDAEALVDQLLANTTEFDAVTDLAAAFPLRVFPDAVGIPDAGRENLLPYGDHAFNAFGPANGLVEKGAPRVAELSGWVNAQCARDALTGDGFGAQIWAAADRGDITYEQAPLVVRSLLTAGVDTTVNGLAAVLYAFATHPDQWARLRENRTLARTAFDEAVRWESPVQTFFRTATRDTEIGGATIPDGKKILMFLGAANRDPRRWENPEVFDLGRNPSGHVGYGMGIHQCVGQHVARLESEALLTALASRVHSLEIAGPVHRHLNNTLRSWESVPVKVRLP
Method: We then measured coupling under optimum conditions for other substrates. […] Finally, we measured the apparent steady-state kinetic parameters of the PbdA reaction under conditions of maximal coupling (Fig. S4).
For activity measurements 0.25 to 1 μM of PbdA and PbdB were combined in a 200 μl cuvette in 20 mM Mops, pH 7.2 with substrate diluted in the same buffer. NADH was added to 350 μM to initiate the reaction. For HPLC analysis, enzymatic reactions were acidified by adding acetic acid to 10% final concentration, centrifuged (16,000×g for 10 min), and filtered through a 0.2 μm polytetrafluoroethylene membrane. Samples were run over a Luna 5 μm C18(2) 100 Å 150 × 3 mm column (Phenomenex) at 0.7 ml min^−1 by a Waters 2695 separation HPLC module. Samples were eluted with a 16.8 ml linear gradient from 1% methanol plus 0.1% formic acid in water to 100% methanol plus 0.1% formic acid and monitored at 280 nm with a Waters 2996 photodiode array detector. Concentrations were determined by interpolation on a standard curve of 0 to 1 mM of authentic standard. NADH concentration was measured by absorbance at 340 nm, ε = 6.22 mM^-1 cm^-1. Coupling was calculated from the ratio of rate of aromatic turnover, as determined by HPLC, and the rate of NADH oxidation, determined spectroscopically. Buffer ionic strength was adjusted by addition of NaCl, as appropriate. Apparent steady-state kinetic parameters were calculated by fitting Michaelis–Menten equations to initial velocity of reactions at various concentrations of aromatic substrate (LEONORA).

PbdA S87A/S237A = target: T2, PbdA S87A/S237A (Rhodococcus jostii, UniProt Q0SCI3, S235A/S85A); experiment: Substrate binding to PbdA S87A/S237A variant by spectral titration; design: species or system Rhodococcus jostii RHA1
T2 construct: hexaHis (N, cleaved yes); made in house; host or cells: PbdA variant: E. coli BL-21 λ (DE3); PbdB: Rhodococcus jostii RHA1
Method: UV-visible spectroscopy was conducted with a Cary 60 spectrophotometer equipped with a thermostatted cuvette holder at 25 °C. Scans of purified proteins diluted in 20 mM Mops, I = 0.1 M, pH 7.2 were taken between 250 and 700 nm. Heme concentration was calculated as described previously ([35]). Carbon monoxide binding was determined by reduction of PbdA diluted in 20 mM Mops, I = 0.1 M, pH 7.2 as above by a few grains of […]. CO was bubbled into the reduced enzyme for approximately 60 s at a rate of one bubble per second. Dissociation constants (Kd) were determined by titration of ligands diluted into enzyme buffer from 1 M stocks prepared in dimethyl sulfoxide into PbdA diluted in 20 mM Mops, I = 0.1 M, pH 7.2. Spectra take upon addition of substrate were subtracted from the spectrum of the enzyme, and peak-to-trough distance was plotted by ligand concentration. Kd values were determined by fitting a hyperbolic equation to the data as described previously ([23], [36]). The proportion of high-spin heme iron was determined using the approximate peak-to-trough extinction coefficient (ε ≈ 100 mM^−1 cm^−1) ([36]).

T2 sequence (Q0SCI3 entry or part of it S85A/S235A): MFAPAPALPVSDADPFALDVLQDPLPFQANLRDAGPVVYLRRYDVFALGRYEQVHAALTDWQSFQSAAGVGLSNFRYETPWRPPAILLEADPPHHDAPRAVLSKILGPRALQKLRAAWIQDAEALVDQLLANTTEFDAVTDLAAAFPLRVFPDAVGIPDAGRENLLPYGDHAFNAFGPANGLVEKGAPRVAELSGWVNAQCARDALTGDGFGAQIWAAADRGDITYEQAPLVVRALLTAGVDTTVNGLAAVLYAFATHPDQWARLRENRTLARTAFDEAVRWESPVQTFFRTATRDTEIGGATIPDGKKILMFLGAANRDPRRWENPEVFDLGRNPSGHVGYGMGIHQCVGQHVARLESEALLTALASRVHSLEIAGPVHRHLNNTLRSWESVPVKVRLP

## COc1ccc(C(=O)O)cc1 [p-MBA, p-methoxybenzoate]
PbdA; WT PbdA with PbdB, air-saturated Mops (I = 0.1 M), pH 7.2, 25 °C, SD in parentheses
  kcat (apparent): 0.37 (0.02) s^−1
PbdA; WT PbdA, O-demethylation, SD in brackets
  Specific activity: 2700 (100) U μg P450^-1
PbdA; WT PbdAB, air-saturated MOPS (I = 0.1 M), pH 7.2, 25 °C, SD in parentheses
  NADH depletion rate: 2700 (100) U mg P450^-1
PbdA; WT PbdAB, appearance of O-demethylated product (disappearance of p-EB), SD in parentheses
  Rate of Aromatic turnover: 2700 (200) U mg P450^-1
PbdA; WT PbdAB, ratio of aromatic turnover rate to NADH oxidation rate
  Coupling: 100 (3) %
PbdA; read-out: KM (apparent), WT PbdA with PbdB, air-saturated Mops (I = 0.1 M), pH 7.2, 25 °C, SD in parentheses
  Km: 18 µM
PbdA S87A/S237A
  pKd: 4.15
PbdA S87A/S237A; S87A/S237A variant, binding energy
  ΔG°: -5.7 kcal/mol
PbdA S87A/S237A; S87A/S237A variant, comparison of ΔG° of variant to wild type
  ΔΔG°: 1.7 kcal/mol
